# How the values were obtained:
# [1] = tested on: CYP24 gene expression in BT474 cell line; assay: RT-PCR of CYP24 gene expression in the BT474 cell line with induction by 1,25-dihydroxyvitamin D3; assay type: cell-based, human; details: BT474 cells, 10^-8M 1,25-dihydroxyvitamin D3 added to the culture medium; FIG. 3C
# Method: (§1) FIG. 3 illustrates expression of CYP24, VDR and ZNF217 genes in human breast cancer cell lines and tumors with and without induction by 1,25-dihydroxyvitamin D3 evaluated by RT-PCR. (a) Time course of induction of CYP24 gene expression in MCF7 breast cancer cells incubated with 10^−8M 1,25-dihydroxyvitamin D3 and vehicle control (ethanol, EtOH). (b) Gene expression in two breast cancer tumors, S21 and S59. (c) Gene expression in the BT474 cell line. Cells were incubated with 10^−8M 1,25-dihydroxyvitamin D3, as described in (a).
# (§2) Previously, CYP24 had been discounted as a candidate oncogene because it was not found to be transcribed in the breast cancer cell line, BT474 (Collins et al. (1998) Proc. Natl. Acad. Sci. USA 95: 8703-8708). However, re-evaluation of expression of CYP24 in cell lines and tumors was warranted because of its position at the peak of the copy number profile and because of the existing knowledge of its function. Therefore we examined expression levels of CYP24 and the vitamin D receptor (VDR), which controls CYP24 expression by RT-PCR using the primers listed in Table 1. […] Furthermore, expression of CYP24 and VDR was detected in two breast tumors S21 and S59 (FIG. 3B). […] Only low level expression of VDR was found in this cell line, most likely accounting for the failure to detect expression of CYP24 in BT474 without addition of 1,25-dihydroxyvitamin-D3. […]
# [2] = tested on: CYP24 gene expression in MCF7 breast cancer cells; assay: RT-PCR of CYP24 gene expression in MCF7 breast cancer cells with induction by 1,25-dihydroxyvitamin D3; assay type: cell-based, human; details: MCF7 cells incubated with 10^-8M 1,25-dihydroxyvitamin D3 vs vehicle control (ethanol); FIG. 3A
# Method: as §1, §2
smiles,measurement,setting,value
"C=C1/C(=C\C=C2/CCC[C@]3(C)[C@@H]([C@H](C)CCCC(C)(C)O)CC[C@@H]23)C[C@@H](O)C[C@@H]1O [1,25-dihydroxyvitamin-D3]",expression of CYP24 (RT-PCR),[1],"CYP24 expression was not detected without addition of 1,25-dihydroxyvitamin-D3"
same,expression of CYP24 (RT-PCR),[2],higher levels of expression of CYP24 were induced

# — patent publication US8685929B2, “Detecting CYP24 expression level as a marker for predisposition to cancer” (The Regents of the University of California, priority 1999, dated 2014)
